Assay results: PMC6061170, “Synthesis and biological investigations of 3β-aminotropane arylamide derivatives with atypical antipsychotic profile” (Medicinal Chemistry Research, 2018)
Where “and” joins values, the source holds several entries; their conditions need not be identical. Equal values may be shown once. Read-outs that look alike come from different tables or passages of the source.

How the values were obtained:
CD-1 mice [1] = test: MK-801-induced hyperlocomotor activity
dopamine D2 receptors [2] = target: T1, dopamine D2 receptors (Rattus norvegicus, UniProt P61169); test: Radioligand binding assay, D2 receptors; settings: for IC50: read-out: D2 IC50 [nM] ± SEM
T1 sequence (P61169 1-415 isoform P61169-2): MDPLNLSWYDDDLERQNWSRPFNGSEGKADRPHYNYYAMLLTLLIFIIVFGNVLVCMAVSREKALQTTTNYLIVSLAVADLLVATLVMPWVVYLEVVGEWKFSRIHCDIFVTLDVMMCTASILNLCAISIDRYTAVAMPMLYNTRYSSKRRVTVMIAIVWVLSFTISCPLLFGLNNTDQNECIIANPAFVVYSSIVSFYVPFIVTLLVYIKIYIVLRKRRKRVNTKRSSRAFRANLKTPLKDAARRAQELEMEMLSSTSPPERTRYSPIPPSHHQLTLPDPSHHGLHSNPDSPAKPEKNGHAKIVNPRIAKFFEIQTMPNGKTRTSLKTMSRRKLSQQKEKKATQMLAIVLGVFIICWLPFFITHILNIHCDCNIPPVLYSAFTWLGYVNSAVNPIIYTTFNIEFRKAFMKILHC

[3] = target: T2, serotonin 5-HT2A receptors (Rattus norvegicus, UniProt P14842); test: Radioligand binding assay, 5-HT2A receptors; settings: for IC50: read-out: 5-HT2A IC50 [nM] ± SEM
T2 construct: from tissue; host or cells: rat brain tissues
T2 sequence (P14842 whole entry): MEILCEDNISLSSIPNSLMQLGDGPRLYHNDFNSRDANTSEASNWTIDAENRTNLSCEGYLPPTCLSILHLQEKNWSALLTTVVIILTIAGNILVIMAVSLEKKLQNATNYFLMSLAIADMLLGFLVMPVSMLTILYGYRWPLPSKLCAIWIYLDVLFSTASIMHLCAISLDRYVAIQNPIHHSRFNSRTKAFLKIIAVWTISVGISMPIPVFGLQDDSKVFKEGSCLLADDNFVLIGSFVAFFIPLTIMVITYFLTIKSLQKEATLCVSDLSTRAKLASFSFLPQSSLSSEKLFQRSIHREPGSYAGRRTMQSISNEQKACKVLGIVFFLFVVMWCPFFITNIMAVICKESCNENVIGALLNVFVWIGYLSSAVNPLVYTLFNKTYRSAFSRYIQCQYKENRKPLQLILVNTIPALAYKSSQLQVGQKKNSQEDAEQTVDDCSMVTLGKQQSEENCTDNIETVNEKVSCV

Albino Swiss mice [4] = test: Forced swim test; settings: for Immobility time (s) Mean ± SEM: last 4 min of session
Albino Swiss mice [5] = test: Four-plate test
[6] = target: T3, serotonin 5-HT1A receptors (Rattus norvegicus, UniProt P19327); test: Radioligand binding assay, 5-HT1A receptors
T3 construct: from tissue; host or cells: rat brain tissues
T3 sequence (P19327 1-422): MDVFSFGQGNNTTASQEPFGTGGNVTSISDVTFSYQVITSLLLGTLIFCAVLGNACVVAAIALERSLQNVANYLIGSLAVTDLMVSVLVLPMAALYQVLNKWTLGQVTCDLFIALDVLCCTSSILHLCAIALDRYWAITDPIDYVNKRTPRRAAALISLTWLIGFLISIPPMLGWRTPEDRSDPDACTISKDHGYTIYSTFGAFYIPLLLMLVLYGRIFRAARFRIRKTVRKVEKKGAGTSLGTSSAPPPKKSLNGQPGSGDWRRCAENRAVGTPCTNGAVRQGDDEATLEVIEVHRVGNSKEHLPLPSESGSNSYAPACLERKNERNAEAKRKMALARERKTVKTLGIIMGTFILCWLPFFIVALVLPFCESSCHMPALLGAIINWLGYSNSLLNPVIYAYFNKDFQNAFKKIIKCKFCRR
Protocol: All compounds were tested for their affinities for 5-HT1A, 5-HT2A, and D2 receptors according to previously described procedures (Stefanowicz et al. [2016]).
Competition binding studies were performed according to a previously described procedure in rat brain tissues (Stefanowicz et al. [2016]).

CD-1 mice [7] = test: d-Amphetamine-induced hyperlocomotor activity
CD-1 mice [8] = test: Spontaneous locomotor activity; assay type: in vivo
[9] = target: T3, serotonin 5-HT1A receptors; settings: earlier lead structures, Fig. 1/Fig. 2; ref Słowiński et al. 2011, 2013; Stefanowicz et al. 2016; cited from earlier work
[10] = target: T2, serotonin 5-HT2A receptors; design: method as in Słowiński et al. 2011, 2013; Stefanowicz et al. 2016; settings: earlier lead structures, Fig. 1/Fig. 2; ref Słowiński et al. 2011, 2013; Stefanowicz et al. 2016; cited from earlier work
dopamine D2 receptors [11] = target: T1, dopamine D2 receptors; design: method as in Słowiński et al. 2011, 2013; Stefanowicz et al. 2016; settings: earlier lead structures, Fig. 1/Fig. 2; ref Słowiński et al. 2011, 2013; Stefanowicz et al. 2016; cited from earlier work
[12] = compound 1.25 mg/kg i.p. 30 min + MK-801 0.2 mg/kg
[13] = compound 2.5 mg/kg i.p. 30 min + MK-801 0.2 mg/kg
[14] = compound 5 mg/kg i.p. 30 min + MK-801 0.2 mg/kg
[15] = rat brain tissues, read-out: 5-HT2A Ki [nM] ± SEM
[16] = 2.5 mg/kg i.p. 30 min before test
[17] = 10 mg/kg i.p. 30 min before test
[18] = 5 mg/kg i.p. 30 min before test
[19] = rat brain tissues, read-out: 5-HT1A IC50 [nM] ± SEM
[20] = compound 5 mg/kg i.p. + d-amphetamine 2.5 mg/kg s.c.
[21] = compound 10 mg/kg i.p. + d-amphetamine 2.5 mg/kg s.c.
[22] = 1.25 mg/kg i.p. 30 min before test

| Compound | Number of crossings/60 min Mean ± SEM (CD-1 mice [1]; [12]) | Number of crossings/60 min Mean ± SEM (CD-1 mice [1]; [13]) | Number of crossings/60 min Mean ± SEM (CD-1 mice [1]; [14]) | Ki (dopamine D2 receptors [2]) | IC50 (dopamine D2 receptors [2]; rat brain tissues) | IC50 ([3]; rat brain tissues) | Ki [3, 15] | Immobility time (s) Mean ± SEM (Albino Swiss mice [4]; [16]) | Number of punished crossings /1 min Mean ± SEM (Albino Swiss mice [5]; [16]) | Number of punished crossings /1 min Mean ± SEM (Albino Swiss mice [5]; [18]) | Number of punished crossings /1 min Mean ± SEM (Albino Swiss mice [5]; [17]) | melting point | Ki [6] | IC50 [6, 19] | Number of crossings/60 min Mean ± SEM (CD-1 mice [7]; [20]) | Number of crossings/60 min Mean ± SEM (CD-1 mice [7]; [21]) | Number of crossings/60 min Mean ± SEM (CD-1 mice [8]; [17]) | Immobility time (s) Mean ± SEM (Albino Swiss mice [4]; [22]) | further results |
| --- | --- | --- | --- | --- | --- | --- | --- | --- | --- | --- | --- | --- | --- | --- | --- | --- | --- | --- | --- |
| Cc1cccc(CN2C3CCC2CC(NC(=O)c2ccc4ccccc4n2)C3)c1 (stereo not shown) [Compound 12e] | 4019.3 ± 341.3; ns, ns crossings/60 min | 5440.1 ± 937.3 ns, ns crossings/60 min | 3580.7 ± 384.9; ns, ns F(5,48) = 2.8885; p < 0.05 crossings/60 min | 52.2 ± 3.4 nM | 260 ± 16.7 nM | > 10000 nM | > 10000 nM | 172.14 ± 11.6 s | 3.5 ± 0.3 crossings/1 min | 2.9 ± 0.3 crossings/1 min | 3.8 ± 0.5 F(3,36) = 1.3827; NS crossings/1 min | 113.8 to 114.7 °C | 0.0553 ± 0.0083 µM | 166 ± 25 nM | 2651.0 ± 512.6; p < 0.01 vs. amph.; ns vs. contr crossings/60 min | 909.9 ± 11.3; p < 0.0001 vs. amph.; ns vs. contr F(4,42) = 10.584; p < 0.0001 crossings/60 min | 1034 ± 255.9 p < 0.05 F(1,18) = 5.4398; p < 0.05 crossings/60 min | – | effect on MK-801-induced hyperlocomotor activity (CD-1 mice [1]; 5 mg/kg, tendency to decrease): did not reach a statistically significant level; Number of crossings/60 min Mean ± SEM (CD-1 mice [1]; compound 0.625 mg/kg i.p. 30 min + MK-801 0.2 mg/kg): 4375.1 ± 583.4; ns, ns crossings/60 min; Immobility time (s) Mean ± SEM (Albino Swiss mice [4]; [17]): 183.33 ± 12.3 F(3,30) = 1.2074; NS s; Number of crossings/60 min Mean ± SEM (CD-1 mice [7]; compound 2.5 mg/kg i.p. + d-amphetamine 2.5 mg/kg s.c.): 2993.0 ± 301.0; p < 0.01 vs. amph.; ns vs. contr crossings/60 min; decrease of locomotor hyperactivity vs. respective d-amphetamine group (CD-1 mice [7]; doses of 5 and 10 mg/kg i.p.): 60–86%; effect on spontaneous locomotor activity (CD-1 mice [8]; doses used in hyperlocomotor activity tests): did not change the spontaneous locomotor activity |
| COc1cc(C(=O)NC2CC3CCC(C2)N3Cc2cccc(C)c2)nc2ccccc12 (stereo not shown) [Compound 12h] | – | – | – | – | 2510 ± 271 nM | > 10000 nM | > 10000 nM | 185.00 ± 15.0 F(3,30) = 3.5680; p < 0.05 s | 5.5 ± 0.5; p < 0.001 crossings/1 min | 2.9 ± 0.3 F(3,36) = 17.202; p < 0.00001 crossings/1 min | – | 116.1 to 118.3 °C | 0.021 ± 0.002 µM | – | – | – | – | 134.78 ± 12.9 s | Ki (dopamine D2 receptors [2]; rat brain tissues, read-out: D2 Ki [nM] ± SEM): 503 ± 54.5 nM; Immobility time (s) Mean ± SEM (Albino Swiss mice [4]; 0.625 mg/kg i.p. 30 min before test): 163.29 ± 10.7 s; Number of punished crossings /1 min Mean ± SEM (Albino Swiss mice [5]; [22]): 5.3 ± 0.3; p < 0.001 crossings/1 min; increase of punished crossings vs. respective control group (Albino Swiss mice [5]; 1.25 and 2.5 mg/kg i.p.): ~60%; IC50 [6]: 62.8 ± 6.2 nM |
| C[C@H](N)Cc1ccccc1 [d-amphetamine, reference compound] | – | – | – | – | – | – | – | – | – | – | – | – | – | – | – | – | – | – | Number of crossings/60 min Mean ± SEM (CD-1 mice [7]; d-amphetamine alone 2.5 mg/kg s.c. 30 min before test): 6819.9 ± 1534.7; p < 0.05 vs. contr crossings/60 min and 6553.1 ± 1214.5; p < 0.001 vs. contr crossings/60 min |
| O=C(NC1CC2CCC(C1)N2Cc1ccccc1)c1ccc2ccccc2c1 (stereo not shown) [compound A] | – | – | – | – | – | – | – | – | – | – | – | – | – | – | – | – | – | – | Ki [9]: 0.304 µM; Ki [10]: 0.0025 µM; Ki (dopamine D2 receptors [11]): 0.0824 µM |
| Nc1ccccc1CN1C2CCC1CC(NC(=O)c1ccc3ccccc3c1)C2 (stereo not shown) [Compound 19a] | 4646.4 ± 675.6; ns, ns crossings/60 min | 3832.0 ± 991.3; ns, ns F(3,33) = 5.2088; p < 0.01 crossings/60 min | 2915.4 ± 580.2; p < 0.001 vs. MK; ns vs. contr F(2,27) = 16.679; p < 0.0001 crossings/60 min | 41.5 ± 1.5 nM | 209 ± 5.5 nM | 173 ± 19.3 nM | – | 128.89 ± 12.3 s | 3.2 ± 0.5 crossings/1 min | 1.1 ± 0.2 crossings/1 min | 3.2 ± 0.5 F(3,33) = 5.6670; p < 0.01 crossings/1 min | 172.7 to 173.3 °C | 0.053 ± 0.002 µM | 159 ± 5.5 nM | 4328.6 ± 1146.8 crossings/60 min | 950.0 ± 411.7; p < 0.01 vs. amph.; ns vs. contr F(3,35) = 5.6910; p < 0.01 crossings/60 min | 491.6 ± 126.5 F(2,26) = 5.3557; p < 0.05 crossings/60 min | 120.00 ± 16.6 s | effect on MK-801-induced hyperlocomotor activity (CD-1 mice [1]; 5 mg/kg and 10 mg/kg i.p.): significantly reduced; Number of crossings/60 min Mean ± SEM (CD-1 mice [1]; compound 10 mg/kg i.p. 30 min + MK-801 0.2 mg/kg): 808.7 ± 66.3; p < 0.0001 vs. Mk; p < 0.05 vs. contr F(2,20) = 23.813; p < 0.001 crossings/60 min; Ki [3]: 46.8 ± 5.5 nM; decrease of immobility time vs. respective control group (Albino Swiss mice [4]; 5 mg/kg i.p.): about 43%; Immobility time (s) Mean ± SEM (Albino Swiss mice [4]; [18]): 96.56 ± 16.2; p < 0,01 F(3,31) = 4.5279; p < 0.01 s; activity in d-amphetamine-induced hyperlocomotor activity test (CD-1 mice [7]; i.p.): active in this test only at a dose of 10 mg/kg i.p.; Number of crossings/60 min Mean ± SEM (CD-1 mice [8]; [16]): 1634.4 ± 511.9 F(2,27) = 0.7417; NS crossings/60 min; Number of crossings/60 min Mean ± SEM (CD-1 mice [8]; [18]): 1480.4 ± 302.3 crossings/60 min; decrease of spontaneous locomotor activity (CD-1 mice [8]; 10 mg/kg): about 70% |
